Legend:
[1] = target: T1, TUT4 (Trypanosoma brucei, UniProt Q381M1); test: X-ray crystal structure, […] Å; type: binding; conditions: Mg2+
T1 sequence (Q381M1 1-333): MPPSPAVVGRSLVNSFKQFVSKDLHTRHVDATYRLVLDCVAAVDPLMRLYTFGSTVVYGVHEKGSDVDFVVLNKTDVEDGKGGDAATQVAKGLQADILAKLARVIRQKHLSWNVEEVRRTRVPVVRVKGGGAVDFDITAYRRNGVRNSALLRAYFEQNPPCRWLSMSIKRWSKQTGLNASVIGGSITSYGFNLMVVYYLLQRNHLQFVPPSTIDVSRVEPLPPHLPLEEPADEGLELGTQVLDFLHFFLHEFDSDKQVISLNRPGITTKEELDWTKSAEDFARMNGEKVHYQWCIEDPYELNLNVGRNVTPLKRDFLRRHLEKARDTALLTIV

[2] = target: T2, RET1ΔNC (Trypanosoma brucei, UniProt Q8WQX5); test: X-ray crystal structure, […] Å; type: binding; conditions: 0.5 mM UMPnPP, 1 mM MgCl2; active site; non-hydrolysable UTP analogue
T2 sequence (Q8WQX5 189-699): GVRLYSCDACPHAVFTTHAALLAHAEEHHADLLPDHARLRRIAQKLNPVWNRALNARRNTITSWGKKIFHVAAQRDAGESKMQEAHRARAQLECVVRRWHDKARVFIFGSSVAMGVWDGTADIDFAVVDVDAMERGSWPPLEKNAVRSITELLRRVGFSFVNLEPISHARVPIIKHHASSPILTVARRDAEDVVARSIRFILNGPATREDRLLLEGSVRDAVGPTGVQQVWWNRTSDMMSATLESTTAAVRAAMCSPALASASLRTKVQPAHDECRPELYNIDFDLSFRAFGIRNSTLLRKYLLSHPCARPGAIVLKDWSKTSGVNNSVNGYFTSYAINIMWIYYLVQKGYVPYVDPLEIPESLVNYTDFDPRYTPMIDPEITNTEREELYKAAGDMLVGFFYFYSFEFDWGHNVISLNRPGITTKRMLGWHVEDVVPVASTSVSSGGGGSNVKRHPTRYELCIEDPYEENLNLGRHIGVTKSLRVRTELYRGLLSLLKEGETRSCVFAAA

## O=c1ccn([C@@H]2O[C@H](COP(=O)(O)OP(=O)(O)OP(=O)(O)O)[C@@H](O)[C@H]2O)c(=O)[nH]1 [UTP]
[1]; ternary complex with UpU, co-crystallised with UTP
  X-ray crystal structure, 2.75 Å: structure of TUT4 from T. brucei with bound UTP and RNA-mimicking dinucleotide UpU

## O=c1ccn([C@@H]2O[C@H](COP(=O)(O)O[C@H]3[C@@H](O)[C@H](n4ccc(=O)[nH]c4=O)O[C@@H]3CO)[C@@H](O)[C@H]2O)c(=O)[nH]1 [UpU]
[1]; ternary complex with UTP, crystals soaked in 1 mM UpU
  X-ray crystal structure, 2.75 Å: structure of TUT4 from T. brucei with bound UTP and RNA-mimicking dinucleotide UpU

## O=c1ccn([C@@H]2O[C@H](COP(=O)(O)NP(=O)(O)OP(=O)(O)O)[C@@H](O)[C@H]2O)c(=O)[nH]1 [UMPnPP]
[2]
  X-ray crystal structure, 1.8 Å (soaked crystals): Crystals of RET1ΔNC in complex with the UTP analog UMPNPP were obtained by soaking
